Measurements: patent publication US20110250135A1, “Piperazine Derivatives for Binding and Imaging Amyloid Plaques and Their Use” (Bayer Schering Pharma Aktiengesellschaft, priority 2008, published 2011)

Experiments:
[1] = Biodistribution: organ distribution of F-18 signal in mice; format: in vivo, male NMRI mice; conditions: for Organ distribution of F-18 signal, intestine: intestine (with content); for Organ distribution of F-18 signal, stomach: stomach (without content)
Method in brief: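 Male NMRI mice (~30 g, 3 per time point) received ca. 150 kBq of the test compound i.v. via tail vein. At 2, 5, 30, 60 and 240 min, urine and feces were collected and organs and tissues taken for gamma counting. Values are decay-corrected % ID/g ± SD.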

Aβ plaques = molecular target: T1, Aβ plaques (Homo sapiens, UniProt P05067); assay: Autoradiographical analysis of binding to cryosections from cortex of AD patients and controls; conditions: F-18 labeled compound; Alzheimer's disease patients (AD) vs controls without Aβ plaques
T1 construct: controls without Aβ plaques; from tissue; host or cells: frontal lobe / cortex sections (frozen and paraffin) from AD patients, FTD patients and age-matched controls
T1 sequence (P05067 672-713 limits assumed): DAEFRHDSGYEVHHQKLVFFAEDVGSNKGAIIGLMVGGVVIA
Method in brief: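 Frozen (18 μm) and deparaffinized paraffin (6 μm) frontal-lobe sections from Alzheimer's, frontotemporal dementia and age-matched control brains were incubated 1.5 h at room temperature with F-18 test compound at 10 Bq/μl in 25 mM Hepes pH 7.4, 0.1% BSA. Blocking used 1000-fold excess unlabeled compound; phosphoimager readout.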

Organ distribution of F-18 signal, adrenals ([1]; 2 min post i.v. injection): 16.31 % ID/g
Organ distribution of F-18 signal, adrenals ([1]; 5 min post i.v. injection): 6.14 % ID/g
Organ distribution of F-18 signal, adrenals ([1]; 30 min post i.v. injection): 1.57 % ID/g
Organ distribution of F-18 signal, adrenals ([1]; 60 min post i.v. injection): 1.35 % ID/g
Organ distribution of F-18 signal, adrenals ([1]; 240 min post i.v. injection): 0.23 % ID/g
Organ distribution of F-18 signal, blood ([1]; 2 min post i.v. injection): 2.05 % ID/g
Organ distribution of F-18 signal, blood ([1]; 5 min post i.v. injection): 2.36 % ID/g
Organ distribution of F-18 signal, blood ([1]; 30 min post i.v. injection): 1.30 % ID/g
Organ distribution of F-18 signal, blood ([1]; 60 min post i.v. injection): 0.33 % ID/g
Organ distribution of F-18 signal, blood ([1]; 240 min post i.v. injection): 0.08 % ID/g
Organ distribution of F-18 signal, brain ([1]; 2 min post i.v. injection): 3.87 % ID/g
Organ distribution of F-18 signal, brain ([1]; 5 min post i.v. injection): 3.14 % ID/g
Organ distribution of F-18 signal, brain ([1]; 30 min post i.v. injection): 0.52 % ID/g
Organ distribution of F-18 signal, brain ([1]; 60 min post i.v. injection): 0.13 % ID/g
Organ distribution of F-18 signal, brain ([1]; 240 min post i.v. injection): 0.02 % ID/g
Organ distribution of F-18 signal, fat ([1]; 2 min post i.v. injection): 1.05 % ID/g
Organ distribution of F-18 signal, fat ([1]; 5 min post i.v. injection): 2.17 % ID/g
Organ distribution of F-18 signal, fat ([1]; 30 min post i.v. injection): 1.02 % ID/g
Organ distribution of F-18 signal, fat ([1]; 60 min post i.v. injection): 0.59 % ID/g
Organ distribution of F-18 signal, fat ([1]; 240 min post i.v. injection): 0.02 % ID/g
Organ distribution of F-18 signal, femur ([1]; 2 min post i.v. injection): 1.44 % ID/g
Organ distribution of F-18 signal, femur ([1]; 5 min post i.v. injection): 1.38 % ID/g
Organ distribution of F-18 signal, femur ([1]; 30 min post i.v. injection): 0.55 % ID/g
Organ distribution of F-18 signal, femur ([1]; 60 min post i.v. injection): 0.24 % ID/g
Organ distribution of F-18 signal, femur ([1]; 240 min post i.v. injection): 0.13 % ID/g
Organ distribution of F-18 signal, heart ([1]; 2 min post i.v. injection): 3.67 % ID/g
Organ distribution of F-18 signal, heart ([1]; 5 min post i.v. injection): 3.81 % ID/g
Organ distribution of F-18 signal, heart ([1]; 30 min post i.v. injection): 0.93 % ID/g
Organ distribution of F-18 signal, heart ([1]; 60 min post i.v. injection): 0.20 % ID/g
Organ distribution of F-18 signal, heart ([1]; 240 min post i.v. injection): 0.06 % ID/g
Organ distribution of F-18 signal, intestine ([1]; 2 min post i.v. injection): 2.27 % ID/g
Organ distribution of F-18 signal, intestine ([1]; 5 min post i.v. injection): 2.90 % ID/g
Organ distribution of F-18 signal, intestine ([1]; 30 min post i.v. injection): 11.37 % ID/g
Organ distribution of F-18 signal, intestine ([1]; 60 min post i.v. injection): 13.11 % ID/g
Organ distribution of F-18 signal, intestine ([1]; 240 min post i.v. injection): 13.53 % ID/g
Organ distribution of F-18 signal, kidney ([1]; 2 min post i.v. injection): 7.60 % ID/g
Organ distribution of F-18 signal, kidney ([1]; 5 min post i.v. injection): 8.59 % ID/g
Organ distribution of F-18 signal, kidney ([1]; 30 min post i.v. injection): 7.84 % ID/g
Organ distribution of F-18 signal, kidney ([1]; 60 min post i.v. injection): 2.86 % ID/g
Organ distribution of F-18 signal, kidney ([1]; 240 min post i.v. injection): 0.79 % ID/g
Organ distribution of F-18 signal, liver ([1]; 2 min post i.v. injection): 8.19 % ID/g
Organ distribution of F-18 signal, liver ([1]; 5 min post i.v. injection): 13.46 % ID/g
Organ distribution of F-18 signal, liver ([1]; 30 min post i.v. injection): 5.20 % ID/g
Organ distribution of F-18 signal, liver ([1]; 60 min post i.v. injection): 1.87 % ID/g
Organ distribution of F-18 signal, liver ([1]; 240 min post i.v. injection): 0.90 % ID/g
Organ distribution of F-18 signal, lung ([1]; 2 min post i.v. injection): 3.63 % ID/g
Organ distribution of F-18 signal, lung ([1]; 5 min post i.v. injection): 3.93 % ID/g
Organ distribution of F-18 signal, lung ([1]; 30 min post i.v. injection): 1.27 % ID/g
Organ distribution of F-18 signal, lung ([1]; 60 min post i.v. injection): 0.42 % ID/g
Organ distribution of F-18 signal, lung ([1]; 240 min post i.v. injection): 0.12 % ID/g
Organ distribution of F-18 signal, muscle ([1]; 2 min post i.v. injection): 1.94 % ID/g
Organ distribution of F-18 signal, muscle ([1]; 5 min post i.v. injection): 2.14 % ID/g
Organ distribution of F-18 signal, muscle ([1]; 30 min post i.v. injection): 0.62 % ID/g
Organ distribution of F-18 signal, muscle ([1]; 60 min post i.v. injection): 0.26 % ID/g
Organ distribution of F-18 signal, muscle ([1]; 240 min post i.v. injection): 0.03 % ID/g
Organ distribution of F-18 signal, pancreas ([1]; 2 min post i.v. injection): 4.49 % ID/g
Organ distribution of F-18 signal, pancreas ([1]; 5 min post i.v. injection): 4.49 % ID/g
Organ distribution of F-18 signal, pancreas ([1]; 30 min post i.v. injection): 1.64 % ID/g
Organ distribution of F-18 signal, pancreas ([1]; 60 min post i.v. injection): 0.32 % ID/g
Organ distribution of F-18 signal, pancreas ([1]; 240 min post i.v. injection): 0.11 % ID/g
Organ distribution of F-18 signal, skin ([1]; 2 min post i.v. injection): 1.12 % ID/g
Organ distribution of F-18 signal, skin ([1]; 5 min post i.v. injection): 1.84 % ID/g
Organ distribution of F-18 signal, skin ([1]; 30 min post i.v. injection): 1.17 % ID/g
Organ distribution of F-18 signal, skin ([1]; 60 min post i.v. injection): 0.43 % ID/g
Organ distribution of F-18 signal, skin ([1]; 240 min post i.v. injection): 0.06 % ID/g
Organ distribution of F-18 signal, spleen ([1]; 2 min post i.v. injection): 1.67 % ID/g
Organ distribution of F-18 signal, spleen ([1]; 5 min post i.v. injection): 2.25 % ID/g
Organ distribution of F-18 signal, spleen ([1]; 30 min post i.v. injection): 0.78 % ID/g
Organ distribution of F-18 signal, spleen ([1]; 60 min post i.v. injection): 0.12 % ID/g
Organ distribution of F-18 signal, spleen ([1]; 240 min post i.v. injection): 0.04 % ID/g
Organ distribution of F-18 signal, stomach ([1]; 2 min post i.v. injection): 3.81 % ID/g
Organ distribution of F-18 signal, stomach ([1]; 5 min post i.v. injection): 3.68 % ID/g
Organ distribution of F-18 signal, stomach ([1]; 30 min post i.v. injection): 2.88 % ID/g
Organ distribution of F-18 signal, stomach ([1]; 60 min post i.v. injection): 2.07 % ID/g
Organ distribution of F-18 signal, stomach ([1]; 240 min post i.v. injection): 0.46 % ID/g
Organ distribution of F-18 signal, tail ([1]; 2 min post i.v. injection): 5.14 % ID/g
Organ distribution of F-18 signal, tail ([1]; 5 min post i.v. injection): 4.06 % ID/g
Organ distribution of F-18 signal, tail ([1]; 30 min post i.v. injection): 2.28 % ID/g
Organ distribution of F-18 signal, tail ([1]; 60 min post i.v. injection): 0.67 % ID/g
Organ distribution of F-18 signal, tail ([1]; 240 min post i.v. injection): 0.31 % ID/g
Organ distribution of F-18 signal, testicle ([1]; 2 min post i.v. injection): 1.42 % ID/g
Organ distribution of F-18 signal, testicle ([1]; 5 min post i.v. injection): 1.73 % ID/g
Organ distribution of F-18 signal, testicle ([1]; 30 min post i.v. injection): 0.79 % ID/g
Organ distribution of F-18 signal, testicle ([1]; 60 min post i.v. injection): 0.27 % ID/g
Organ distribution of F-18 signal, testicle ([1]; 240 min post i.v. injection): 0.04 % ID/g
Organ distribution of F-18 signal, thyroid ([1]; 2 min post i.v. injection): 3.00 % ID/g
Organ distribution of F-18 signal, thyroid ([1]; 5 min post i.v. injection): 2.94 % ID/g
Organ distribution of F-18 signal, thyroid ([1]; 30 min post i.v. injection): 0.94 % ID/g
Organ distribution of F-18 signal, thyroid ([1]; 60 min post i.v. injection): 0.30 % ID/g
Organ distribution of F-18 signal, thyroid ([1]; 240 min post i.v. injection): 0.16 % ID/g
Compound: O=C(NCC(=O)N1CCN(c2ccc(OCc3ccccc3)cn2)CC1)c1ccnc([18F])c1 [Example 14f, [^18F]-N-(2-{4-[5-(benzyloxy)pyridin-2-yl]piperazin-1-yl}-2-oxoethyl)-2-fluoropyridine-4carboxamide]
autoradiographical analysis of binding to cryosections from cortex (Aβ plaques): Specific binding in plaque-rich regions of AD samples
